According to patent US9474780B2, “GIP and GLP-1 co-agonist compounds” (Eli Lilly and Company, priority 2015, dated 2016):
Marks after values point to notes of the source that are not given here.

Experiments:
[1] = Dose potency projection: rat ivGTT exposure response Emax model; type: in vivo; conditions: single SC dose, ivGTT 16 hours post-dosage
Procedure: The intravenous glucose tolerance test (ivGTT) in the rat is used to estimate relative potency of compounds of the present invention in comparison to semaglutide. […] Exposure is measured at the time of the ivGTT, and for exposure response modeling, the insulin AUC in response to the ivGTT is used as the primary endpoint. […] Both data sets are fit simultaneously and E0 and Emax values are constrained to be the same for both compounds. Only ED50 values are fit separately for the compounds.

[2] = Rat in vivo insulin secretion following intravenous glucose (IVGTT); conditions: s.c. 16 hour prior to glucose
Procedure, shortened: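 Male Wistar rats dosed s.c. with vehicle or 0.1–10 nmol/kg 16 h before glucose, then fasted and anesthetized with pentobarbital i.p. (65 mg/kg). Glucose ([…]) given after a time-zero bleed; plasma sampled at 2, 4, 6, 10, 20, 30 min. Glucose measured by analyzer, insulin by MSD immunoassay.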

[3] = Weight loss, body composition and hepatic steatosis in DIO mice; type: in vivo, mouse; conditions: for Blood Glucose: Day 15
Procedure, shortened: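 C57/BL6 DIO mice, individually housed at 24 °C, 12 h light/dark, food and water ad libitum; daily body weight and food intake, weight change versus pre-dose value of the same animal. Day 15: tail-vein glucose, then liver triglycerides and plasma cholesterol; ANOVA with Dunnett's test, ED50 for weight loss by non-linear fit.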

[4] = Energy metabolism in DIO mice (indirect calorimetry); type: in vivo, mouse; conditions: SC every three days for 22 days, from week 2, semaglutide 30 nmol/kg
Procedure: The effects on energy metabolism in DIO mice for compounds of the present invention are evaluated in 26 week old C57/B16 DIO male mice, weighing 43-50 g. Mice are individually housed in a temperature-controlled (24° C.) facility with a 12 hour light/dark cycle (lights on 22:00), and with free access to food TD95217 (Teklad) and water. After 2 weeks acclimation to the facility, mice are randomized to treatment groups (n=6/group) based on body weight so each group has similar starting mean body weight. Animals are placed in a PhenoMaster/LabMaster calorimeter (TSE Systems, Chesterfield, Mo.) for 3 days of acclimation. Vehicle control (20 mM citrate buffer at pH 7.0, 10 ml/kg), compounds of the present invention, or a long-acting GLP1 analogue, semaglutide, (30 nmol/kg) are subcutaneously administered to ad libitum fed DIO mice 30-90 minutes prior to the onset of the dark cycle every three days for 22 days. Heat and respiratory quotient (RER) are measured by indirect calorimetry as described using an open-circuit calorimetry system. RER is the ratio of the volume of CO2 produced (Vco2) to the volume of O2 consumed (Vo2). Heat is calculated with full body weight considered: VO2=FlowML*(V1+V2)/N2Ref*Animal weight*100) VCO2=FlowML*dCO2/Animal weight*100) Heat=(CVO2*VO2+CVCO2*VCO2)/1000; where CVO2=3.941; CVCO2=1.106

[5] = Gastric emptying in DIO mice; type: in vivo, mouse; conditions: 30 nmol/kg SC, semi-liquid diet, 2 hours
Procedure: The effects on gastric emptying in DIO mice for compounds of the present invention are evaluated in 23 week old diet-induced obese (DIO) male mice (Harlan). The mice are fasted for 16-17 hours. During the start of fasting period the mice are dosed subcutaneously with vehicle control (20 mM citrate buffer at pH 7.0); escalating doses of compounds of the present invention (3, 10, 30 and 100 nmol/kg), or a long-acting GLP1 analogue, semaglutide, (30 nmol/kg). The next day, mice are administered 0.5 ml (0.5 gram) of freshly prepared semi-liquid diet (2 minutes apart) by oral gavage. Water is removed at this time to prevent dilution of administered diet. Two hours after diet administration, mice are euthanized two minutes apart by CO2 gas. The stomach is removed while clamped at both cardiac and pyloric openings, then clamps removed and the full stomach weighed in a weigh boat. The stomach is then incised and contents removed. The stomach is washed and dried and re-weighed to assess food contents in stomach. The % gastric emptying equals 100×(1−(food remaining in stomach/food orally administered)).

[6] = Plasma corticosterone in Sprague Dawley rats; type: in vivo, rat
Procedure: Plasma corticosterone levels are evaluated using Sprague Dawley Rats (Harlan, Indianapolis), weighing approximately 220 g and acclimated for at least 72 hours before handling. The rats are then dosed with vehicle (20 mM citrate buffer, pH 7), semaglutide (10 nmol/kg), or compounds of the present invention at 3, 10 or 30 nmol/kg s.c. with 8 rats per dose group. The rats are decapitated 16 hours later. Blood is collected into EDTA tubes on ice, then centrifuged 5 minutes at 8000 RPM in a Eppendorf 5402 tabletop centrifuge. Plasma is stored at −80° C. until analysis.
For corticosterone analysis, corticosterone standards (Sigma, 27840) are prepared by serial dilutions in HPLC-grade methanol, H2O and the addition of 5% charcoal stripped rat serum (Bioreclamation, RATSRM-STRPD-HEV). Rat plasma samples are diluted with PBS, precipitated with cold methanol, incubated for 20 minutes at −20° C., and then centrifuged at 14,000 RPM with an Eppendorf 5417R at 4° C. Supernatants are extracted, evaporated under a stream of N2 gas, and reconstituted in MeOH/H2O (1:1) solution.

## semaglutide [reference compound]
[1]
  ED50 (Emax model, insulin AUC in ivGTT): 0.6 ± 0.2 nmol/kg
[2]
  % max increase of insulin AUC: 231 +/− 13%
  ED50 for insulin, rat IVGTT: 0.70 nmol/kg
[3]; Table 8, 10 nmol/kg
  % Change from starting body weight: −12.36 ± 1.00 %
  % Change from starting fat mass: −18.21 ± 2.24 %
[3]; Table 8, 30 nmol/kg
  % Change from starting body weight: −14.20 ± 1.01 %
  % Change from starting fat mass: −21.90 ± 2.07 %
[3]; Table 8, 100 nmol/kg
  % Change from starting body weight: −19.30 ± 1.38 %
  % Change from starting fat mass: −33.51 ± 3.30 %
[3]; Table 9, 30 nmol/kg
  % Change from starting body weight: −17.03 ± 0.98 %
  % Change from starting fat mass: −35.94 ± 4.09 %
[3]; Table 11, 10 nmol/kg
  Plasma Cholesterol: 226.8 ± 13.86 mg/dL
  Plasma Triglycerides: 27.36 ± 3.56 mg/dL
  Blood Glucose: 147.6 ± 6.13 mg/dL
[3]; Table 11, 30 nmol/kg
  Plasma Cholesterol: 229.8 ± 10.96 mg/dL
  Plasma Triglycerides: 27.9 ± 6.01 mg/dL
  Blood Glucose: 146.8 ± 8.43 mg/dL
[3]; Table 11, 100 nmol/kg
  Plasma Cholesterol: 218.4 ± 18.70 mg/dL
  Plasma Triglycerides: 36.46 ± 5.34 mg/dL
  Blood Glucose: 134.3 ± 9.22 mg/dL
[3]; Table 12, 30 nmol/kg
  Liver Triglycerides: 67.63 ± 23.40 mg/g tissue
  Plasma Cholesterol: 161.0 ± 13.92 mg/dL
  Blood Glucose: 136.3 ± 3.81 mg/dL
[4]
  increase in metabolic rate compared to the control group: no effect on metabolic rate
[5]
  Percent Gastric Emptying: 30.56 +/− 7.53** %
[6]; 10 nmol/kg s.c., 16 hours
  Corticosterone, Mean: 274.57 ng/mL
[6]; Example 1 at 3, 10, 30 nmol/kg, semaglutide 10 nmol/kg
  increase in plasma corticosterone levels over control: approximately 4 ×
